The test system of data set [1] is Jak2-V617F expressing Human Erythroleukemia (HEL) cells. The data set can be described thus: Inhibition of Jak2-V617F dependent HEL cell growth (trypan blue viable cell count). The note with it: for inhibition at 25 µM: Homo sapiens, HEL; for inhibition at 25 µM / % Growth Inhibition: 25 uM inhibitor. The class given is cell-based. Here is the method: (§1) Methods: Jak2-V617F expressing Human Erythroleukemia (HEL) cells were plated in 96 well plates at ˜40,000 cells per well and incubated with either vehicle control (0.25% DMSO) or with 25 uM of Jak2 kinase inhibitors. Viable cell numbers were then determined at the times (0, 4, 24, 48 and 72 hours) via trypan blue exclusion and a hemocytometer. Aqueous solubility was determined using a MultiScreen® Solubility Filter Plate (Millipore) (see Quantitative method to determine drug aqueous solubility: optimization and correlation to standard methods; http://www.millipore.com/techpublications/tech1/an1730en00) and a Spectrophotometer.

Data set [2] in a line: Aqueous solubility (MultiScreen Solubility Filter Plate). The class given is physicochemical. The note with it: MultiScreen Solubility Filter Plate (Millipore), kinetic from dmso stock. Here is the method:
as §1

In data set [3] the test system is Marrow derived mononuclear cells (polycythemia vera, Jak2-V617F positive). Nature of the data set: Ex vivo colony formation of marrow cells from a polycythemia vera patient. Conditions: 25 or 2.5 μM. The class given is cell-based, human. Here is the method:
Methods: Marrow derived mononuclear cells were obtained from a person, who has been confirmed to have polycythemia vera and also identified as Jak2-V617F positive. Marrow derived mononuclear cells were washed three times in IMDM media and plated at 4×10^5 cells/mL in 1 mL methylcellulose media (0.9% methylcellulose, 30% heat inactivated FCS, 0.1 mM 2-mercaptoethanol, 0.9% BSA, 0.05% NaHCO3, 2 mM/L glutamine, penicillin, streptomycin, 50 ng/mL SCF, and 20 ng/mL IL-3 (Stem Cell Technologies, Vancouver, BC). Vehicle control (DMSO at 0.25%) or inhibitors were added at the indicated concentrations (25 or 2.5 μM). EPO (1 U/mL) was also added as indicated. The cultures were then incubated at 37° C. and 5% CO2 until assessment of colony formation at day 14. Results were expressed as the average number of colonies from duplicate cultures per 4×10^5 cells.

Data set [4] has as its system Jak2-V617F expressing HEL cells. Nature of the data set: Apoptosis assay (Annexin V/Propidium Iodide FACS). The note with it: 25 μM, 48 hours. The class given is cell-based, Human. Here is the method: Jak2-V617F expressing HEL cells were exposed to either vehicle control (DMSO), or 25 μM of an inhibitor for 48 hours. The percentage of apoptotic cells was then determined via Annexin V/Propidim Iodide FACS analysis.

In data set [5] the test system is Jak2-V617F expressing Human Erythroleukemia (HEL) cells. The data set can be described thus: Inhibition of Jak2-V617F dependent HEL cell growth (trypan blue viable cell count). The class given is cell-based. The note with it: for IC50: read-out: IC50 for inhibition on Jak2-V617F dependent HEL cells proliferation.
A further data set relates to HEL cells. The data set can be described thus: Jak2-V617F-induced hematopoietic disease in NOD-SCID mouse model (HEL cell injection). Type of data set: in vivo, NOD-SCID mice. As for the experimental part:
Methods: In the experiment, NOD-SCID mice, N=36. were randomized into 6 groups (n=6). Baseline peripheral blood samples and weights were taken at Day 0. At day 7, 2×10^6 HEL cells were injected into each mouse in Groups 2, 3, 4 and 5. […] Then all the mice were euthanized.
In the experiment, the following measurable endpoints were assessed. For peripheral blood, total white blood cell (WBC) counts, the percentage of blast cells, the percentage of nucleated red blood cells (RBC), and Hematocrits were measured. For bone marrow, quantitative cellularity, and Myeloid cell to erythroid cell (M:E) ratio were assessed. Further, toxicity in spleen, brain, kidney, liver, and lung using histological analysis is assessed.
Peripheral blood samples were obtained via weekly submandibular bleeds using a 21 gauge needle. Blood samples were smeared onto glass slides, stained, and dried. Peripheral blast cells on each slide were then tabulated using a pathology light microscope. The average percent of peripheral blast cells for each treatment group was then graphed as a function of time.
At necropsy, femurs from each animal were formalin fixed, de-calcified and then parrafin embedded. Parrafin sections were then made, stained with hematoxylin and eosin and dried. The number of myeloid and erythroid cells were then tabulated by a veterinary pathologist who was blind to the treatment groups. The ratio of myeloid to erythroid cells was then graphed as a function of treatment group. Further, the average number of mature and immature erythroid cells was then graphed as a function of treatment group.
Additionally, at necropsy, animals were weighed one final time and spleens were then removed from each mouse. The wet weight of each spleen was recorded and the spleen weight to body weight ratio was graphed as a function of treatment group.

A further data set has as its target T1, recombinant p60c-src (Homo sapiens, UniProt P12931).
T1 construct: purchased Upstate Biotechnology
Nature of the data set: c-Src assay (in vitro kinase reaction, anti-Src pY418 Western blot). The class given is biochemical. The note with it: 25 uM, 20 minutes, room temperature. As for the experimental part:
Approximately 4 μL (12 units) of catalytically active recombinant p60c-src (Upstate Biotechnology) was incubated in 46 μL of in vitro kinase reaction buffer (50 mM HEPES, pH 7.6, 5 mM MnCl2, 5 mM MgCl2, 100 mM NaCl, 0.5 mM DTT), either in the presence of DMSO or 25 uM Z3. The reactions were incubated for 20 minutes at room temperature and then
terminated by addition of SDS-containing buffer. The samples were Western blotted with an anti-Src (pY418) polyclonal antibody (Biosource).
For orientation: Immunoblotting shows a protein as a band on a membrane.

The test system of data set [6] is Marrow derived mononuclear cells (Essential Thrombocythemia, Jak2-V617F positive). The data set can be described thus: Ex vivo Jak2-V617F dependent megakaryocyte colony formation (essential thrombocythemia patient). Conditions: 25 uM, day 14. Type of data set: cell-based, human. The source says:
Marrow derived mononuclear cells were taken from a person, who was confirmed Essential Thrombocythemia and being Jak2-V617F positive.

≈ marks a conversion by molar mass, not a printed value. Where two headings read alike, the source gives them in different places.

As usually defined, the inhibition is the relative decrease from the control value, in per cent. For orientation: solubility means the dissolved amount per volume that the medium holds. The low end stands for a poorly soluble substance, the high end for a readily soluble substance.

Turning to `CCN(CC)Cc1cc(/C=C/c2ccc(O)c(CN(CC)CC)c2)ccc1O` [NB-1, (Z)- and (E)-4,4′-(Ethene-1,2-diyl)bis(2-((diethylamino)methyl)phenol)], the inhibition at 25 µM in data set [1] came to 98%. Further, in data set [2], the solubility came to 533 µM (≈ 204 µg/mL). Further, in data set [3], the “pathologic cell growth (colony formation at day 14)” value (“pathologic cell growth” for short) is recorded as “reduce pathologic cell growth”. For the same compound, in data set [4], the “% of Cells in Apoptosis” value is 66% and the “suppressing HEL cell growth compared with G6” value is “behaves similarly to G6”. Moreover, the IC50 in data set [5] (Homo sapiens, HEL) was roughly 4 µM.

In the case of `CCN(CC)Cc1ccc(/C(C)=C(/C)c2ccc(CN(CC)CC)c(O)c2)cc1O` [NB-3, (Z)- and (E)-5,5′-(But-2-ene-2,3-diyl)bis(2-((diethylamino)methyl)phenol)], in data set [1], the inhibition at 25 µM turned out to be 101%. This compound yielded a solubility in data set [2] of 460 µM (≈ 189 µg/mL).

Regarding `C/C(=C(/C)c1ccc(CN(C)C)c(O)c1)c1ccc(CN(C)C)c(O)c1` [NB-4, (Z)- and (E)-5,5′-(But-2-ene-2,3-diyl)bis(2-((dimethylamino)methyl)phenol)], in data set [1], the inhibition at 25 µM was 101%. In data set [2], this compound showed a solubility of 478 µM (≈ 169 µg/mL).

As for `CCN(CC)Cc1ccc(/C=C\c2ccc(CN(CC)CC)c(O)c2)cc1O` [NB-5, (Z)- and (E)-5,5′-(Ethene-1,2-diyl)bis(2-((diethylamino)methyl)phenol)], the inhibition at 25 µM in data set [1] stood at 101%. The same compound displayed a solubility in data set [2] of 509 µM (≈ 195 µg/mL).

On to `CN(C)Cc1ccc(/C=C\c2ccc(CN(C)C)c(O)c2)cc1O` [NB-6, (Z)- and (E)-5,5′-(Ethene-1,2-diyl)bis(2-((dimethylamino)methyl)phenol)], for which, in data set [1], the inhibition at 25 µM is roughly 19%. In addition, in data set [2], the concentration in solution (solubility) came to 538 µM (≈ 176 µg/mL).

Turning to `Oc1cc(/C=C\c2ccc(CN3CCCCC3)c(O)c2)ccc1CN1CCCCC1` [NB-7, (Z)- and (E)-5,5′-(Ethene-1,2-diyl)bis(2-(piperidin-1-ylmethyl)phenol)], the inhibition at 25 µM in data set [1] turned out to be 99%. The compound further showed a solubility in data set [2] of 495 µM (≈ 201 µg/mL).

On to `CCN(CC)Cc1ccc(/C(C)=C(\C)c2ccc(CN(CC)CC)c(O)c2)cc1O` [NB-8, (Z)- and (E)-5,5′-(But-2-ene-2,3-diyl)bis(2-((diethylamino)methyl)phenol).2HCl], for which, in data set [1], the inhibition at 25 µM amounted to 100%. The compound also came in with a solubility in data set [2] of 272 µM.

Take `C/C(=C(\C)c1ccc(CN(C)C)c(O)c1)c1ccc(CN(C)C)c(O)c1` [NB-9, (Z)- and (E)-5,5′-(But-2-ene-2,3-diyl)bis(2-((dimethylamino)methyl)phenol).2HCl]: the inhibition at 25 µM in data set [1] amounted to 101%. In addition, the solubility in data set [2] was 384 µM.

For the compound `CCN(CC)Cc1ccc(/C=C/c2ccc(CN(CC)CC)c(O)c2)cc1O` [NB-10, (Z)- and (E)-5,5′-(Ethene-1,2-diyl)bis(2-((diethylamino)methyl)phenol).2HCl], in data set [1], the inhibition at 25 µM worked out at 100%. This compound yielded a solubility in data set [2] of 474 µM.

For `Oc1cc(/C=C/c2ccc(CN3CCCCC3)c(O)c2)ccc1CN1CCCCC1` [NB-12, (Z)- and (E)-5,5′-(Ethene-1,2-diyl)bis(2-(piperidin-1-ylmethyl)phenol)], the inhibition at 25 µM in data set [1] came out at 100%. For the same compound, the solubility in data set [2] worked out at 484 µM (≈ 197 µg/mL).

Take “(Z) and (E)-4,4′-(Hex-3-ene-3,4-diyl)bis(2-((diethylamino)methyl)phenol) [Compound G6]”: in data set [1], the “time required to inhibit Jak2-V617F dependent cell proliferation by 50%” value is roughly 11 h and the “% Growth Inhibition” value is reported as 100%. For the same compound, in data set [3], the “pathologic cell growth” value is “reduce pathologic cell growth”. For the same compound, in the data set with HEL cells (10 mg/kg/day), the “Peripheral blood counts of granulocytes, neutrophils, and eosinophils” value is “all normal”; the bone marrow necrosis was 2 of 6; the “histology of brain, kidney, liver, and lung” value was “histologically normal”; the splenic necrosis was 3 of 6. For the same compound, in the data set on HEL cells (0.1-10 mg/kg/day), the “percentage of blast cells in peripheral blood” value is reported as “reduces the percentage of blast cells in peripheral blood in a dose-dependent manner”. For the same compound, the “numbers of mature and immature Erythroid cells in bone marrow” value with HEL cells (mouse, in vivo) is on record as “reduced numbers of mature Erythroid cells, not immature Erythroid cells”. Also, the “c-Src tyrosine kinase activity” value at recombinant p60c-src is on record as “no effect on c-Src tyrosine kinase activity”. In data set [4], the “% of Cells in Apoptosis” value stood at 79%. The “Jak2-V617F dependent megakaryocyte colony formation” value in data set [6] is “blocks Jak2-V617F dependent megakaryocyte colony formation”. In data set [5] (HEL cells), the “Jak2-V617F dependent HEL cell proliferation, dose and time dependence” value was “Inhibits Jak2-V617F Dependent HEL Cell Proliferation in both a dose and time dependent manner”; the IC50 is roughly 4 µM.

For the compound “(Z)- and (E)-4,4′-(But-2-ene-2,3-diyl)bis(2-((diethylamino)methyl)phenol) [NB-2]”, the “% Growth Inhibition” value in data set [1] (25 µM) worked out at 53%. The “pathologic cell growth” value in data set [3] is “reduce pathologic cell growth”. In addition, in data set [4], the “% of Cells in Apoptosis” value is listed as 28% and the “suppressing HEL cell growth compared with G6” value was “not as effective as G6”. Besides, in data set [5] (HEL cells), the IC50 was roughly 9 µM.

The values are drawn from patent US20110301159A1, “KINASE INHIBITOR COMPOUNDS” (UNIVERSITY OF SOUTH FLORIDA, priority 2008, published 2011).
